This is an account of results in patent US20260184712A1, “Heterocyclic Compounds as ENT Inhibitors and Compounds for Use in the Treatment of Cancers” (iTeos Belgium SA, priority 2022, published 2026).

Structures are written as SMILES. pIC50: −log10 of the molar value.

The experiment deals with stimulated primary human T cells. The experiment in a line: T cell proliferation assay, Condition B (X-VIVO15, 2% HSA and 0.1% AAG). Format: cell-based. The note with it: Homo sapiens, T-cell, 96 h; Condition B: X-VIVO15 medium containing HSA and α1-Acid Glycoprotein; anti-CD3/anti-CD28 beads, ATP, 4 days; CFSE-lo T cells. The procedure, abridged:
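CFSE-labelled CD3+ T cells from healthy donors (2×10^4/well) in X-VIVO15 with 2% HSA and 0.1% AAG were stimulated with anti-CD3/CD28 beads. After 30 min pre-incubation with inhibitor, ATP was added and cells were cultured 4 days at 37° C. Flow cytometry gave % CFSE^lo cells, with IC50/IC90 and pICF from curve fits.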
A word on the pIC50: it is the negative decadic logarithm of the IC50, by convention in mol/L. Low readings indicate a high IC50, high ones a low IC50. For `C[C@H]1O[C@@H](n2c(NC3CCCC3)nc3c(OCc4ccc([N+](=O)[O-])cc4)ncnc32)[C@H](O)[C@@H]1O` [Compound 6], the pIC50 is 7.70 to 9.00.

`C[C@H]1O[C@@H](n2cnc3c(N4CCc5ccc([N+](=O)[O-])cc5C4)ncnc32)[C@H](O)[C@@H]1O` [Compound 151]: the pIC50 was 6.30 to 7.70.

In the case of `C[C@H]1O[C@@H](n2cnc3c(SCc4ccc([N+](=O)[O-])cc4)ncnc32)[C@H](O)[C@@H]1O` [Compound 147], the negative-log IC50 (pIC50) is 6.30 to 7.70.

Consider `OCCOC[C@H]1O[C@@H](n2cnc3c(OCc4ccc(OC(F)(F)F)cc4)ncnc32)[C@H](O)[C@@H]1O` [Compound 175], for which the pIC50 is 6.30 to 7.70.

The compound `C[C@H]1O[C@@H](n2c(NC3CCOCC3)nc3c(OCc4ccc(C#N)cc4)ncnc32)[C@H](O)[C@@H]1O` [Compound 73] showed a pIC50 of 6.30 to 7.70.

Compound `C[C@H]1O[C@@H](n2c(N[C@H]3CCC(F)(F)C3)nc3c(OCc4ccc(C#N)cc4)ncnc32)[C@H](O)[C@@H]1O` [Compound 82] showed a pIC50 of 6.30 to 7.70.

For the compound `C[C@H]1O[C@@H](n2cnc3c(OCc4ccc(OC(F)F)cc4)ncnc32)[C@H](O)[C@@H]1O` [Compound 173], the pIC50 is 6.30 to 7.70.

With `C[C@H]1O[C@@H](n2c(NC3CCOCC3)nc3c(OCc4ccc(OC(F)F)nc4)ncnc32)[C@H](O)[C@@H]1O` [Compound 75], the pIC50 was 6.30 to 7.70.

Take `C[C@H]1O[C@@H](n2cnc3c(OCc4ccc([N+](=O)[O-])cc4)ncnc32)[C@H](O)[C@@H]1O` [Compound 166]: the pIC50 was 6.30 to 7.70.

Regarding `C[C@H]1O[C@@H](n2c(NC3CCC(O)CC3)nc3c(OCc4ccc([N+](=O)[O-])cc4)ncnc32)[C@H](O)[C@@H]1O` (stereo partly shown) [Compound 28], the pIC50 was 7.70 to 9.00.
